The source of these data is paper PMC7226417, “Utilizing Genome-Wide mRNA Profiling to Identify the Cytotoxic Chemotherapeutic Mechanism of Triazoloacridone C-1305 as Direct Microtubule Stabilization” (Cancers, 2020).

The subject of this experiment is T1, tubulin (α/β tubulin dimer).
T1 construct: with α- and β-tubulin heterodimer
Briefly: in vitro tubulin polymerization assay, turbidity at […] nm (stabilization of polymerization). It is filed as biochemical.

A word on the EC50: it is the concentration needed to bring the measured effect to its halfway point. For `CN(C)CCCNc1ccc2nnn3c4ccc(O)cc4c(=O)c1c23` [C-1305, 5-{[3-(Dimethylamino)propyl]amino}-8-hydroxy-6H-[1,2,3]triazolo[4,5,1-de]acridin-6-one], the EC50 was determined as 2740 nM.
